Measurements from patent publication US8742113B2, “Furanone derivative” (SBI Biotech Co., Ltd., priority 2011, dated 2014).
Where two headings read alike, the source gives them in different places.

Tests used:
[1] = biological target: human Cdc7/human ASK complex protein (Homo sapiens (Human), UniProt O00311); experiment: Inhibitory effect on Cdc7 protein kinase (MSA assay kit); assay type: biochemical
Procedure: [Inhibitory Effect on Cdc7 Protein Kinase]
Measurement of kinase activity was carried out using an MSA assay kit (QuickScout Screening Assist™ Kit, Carna Biosciences, Inc.).
Assay buffer (20 mM HEPES, 0.01% Triton X-100™, 2 mM dithiothreitol, pH 7.5) was used to prepare a substrate mixture solution comprising 4 μM of a kinase-reaction substrate (FITC-labeled MCM2 peptide), 40 mM MgCl2, and 20 μM ATP.
The enzyme supplied in the kit (human Cdc7/human ASK complex protein) was diluted in the assay buffer so as to be at 7 nM, thereby preparing an enzyme solution.
The stock solution of each test compound was diluted in DMSO to prepare diluted DMSO solutions of 10 concentrations (0.00003 mM, 0.0001 mM, 0.0003 mM, 0.001 mM, 0.003 mM, 0.01 mM, 0.03 mM, 0.1 mM, 0.3 mM, 1 mM), each of which was further diluted 25 times in the assay buffer to make a drug solution (a solution containing 4% DMSO).
The kinase reaction was performed in wells of a polypropylene 384-well plate in which 5 μl of each of the drug solutions or of a solvent (assay buffer containing 4% DMSO), 5 μl of the substrate mixture solution, and 10 μl of the enzyme solution were mixed. The assay buffer, instead of the enzyme solution, was added to blank wells. After the reaction at room temperature for 5 hours, 60 μl of the termination buffer supplied in the kit was added to each well to stop the reaction. The percent inhibition of each reaction was determined using a LabChip EZ Reader II system (manufactured by Caliper Life Sciences), according to the protocol provided with the assay kit. In this case, the peak heights of the separated substrate and the phosphorylated substrate were represented as S and P, respectively, and the percent inhibition (%) by a tested compound was calculated according to the following formula: Percent inhibition(%)=(1−(C−A)/(B−A))×100 wherein A denotes P/(P+S) for a blank well, B denotes P/(P+S) for a solvent well, and C denotes P/(P+S) for a compound-added well.
The IC50 value of a tested compound was calculated by regression analysis of the percent inhibition values versus the (logarithmic) concentrations of the tested compound.

[2] = tested on: MCM2 phosphorylation in COLO205 cells; experiment: Inhibitory effect on MCM2 phosphorylation using cells (Western blot); assay type: cell-based; conditions: Homo sapiens, COLO 205, 0.1 μM test compound, 24 hours, class by percent phosphorylation of MCM2, read-out: Test Example 2 Inhibitory effect on MCM2 phosphorylation
Procedure: [Inhibitory Effect on Phosphorylation Using Cells]
COLO205 cells derived from human colon adenocarcinoma (RCB2127, RIKEN BRC) were cultured in 10 cm dishes using RPMI-1640 medium (SIGMA, R8758) supplemented with 10% FCS (Equitech-bio) and 5% penicillin/streptomycin (GIBCO, 15140). After the cells were cultured to a confluence of 70 to 90%, the medium was removed, and the cells were treated with trypsin (2 mL, TrypLE Express, GIBCO, 12604-021) and then harvested using a new medium.
COLO205 cells were seeded in 6-well plates (FALCON, 35046) to 2.5×10^5 cells (1 ml) per well and cultured overnight in a 5% CO2 incubator. A drug solution, which was prepared by adding 1.5 μl of a 0.1-mM stock solution in DMSO of a test compound to 500 μl of medium, was added to each well (to a final drug concentration of 0.1 μM), and then cultured for another 24 hours.
Cells were cultured for 24 hours in the presence of a test compound, harvested using a similar way as described above, washed with PBS, and then pelletized and stored at −80° C. The frozen cells were thawed, subsequently suspended immediately in 2×SDS-PAGE electrophoresis buffer (1×10^5 cells per 10 μl), and heated at 95° C. for 10 minutes, leading to the dissolution and denaturation of the proteins. The resulting sample solutions were subjected to SDS-PAGE using a 5-20% gradient acrylamide gel (e-PAGEL (5-20%), ATTO, E-T520L). After the electrophoresis was completed, the gel was immersed in tris-glycine buffer supplemented with 20% methanol, and the proteins in the gel were transferred onto a PVDF membrane (MILLIPORE, Immobilon-P, IPVH00010) using a semi-dry transfer apparatus (TRNS-BLOT SD SEMI-DRY […] CELL, BIO RAD).
The transferred PVDF membrane was blocked with 5% skim milk (Difco Skim Milk, BD, 232100), and then subjected to reaction with an anti-MCM2 goat antibody (N-19, Santa Cruz, sc-9839) or anti-phosphorylated MCM2 rabbit antibody (S53) (Bethyl, A300-756A) as a primary antibody and additionally with an anti-α tubulin mouse antibody (Clone DM 1A, SIGMA, 9026) as an internal control. Each band was detected by chemiluminescence using an HRP-labeled anti-goat IgG donkey antibody (Santa Cruz, sc2020), anti-rabbit IgG sheep antibody (Roche, 12015218001), or anti-mouse IgG donkey antibody (Jackson ImmunoResearch, 715-035-151) as a secondary antibody. The combinations of and the diluted concentrations of the primary and secondary antibodies were as indicated below.
The bands which were detected were normalized using the amount of endogenous α-tubulin as a reference, and the percent phosphorylation of MCM2 was calculated for each of the tested compounds. Their inhibitory effects on MCM2 phosphorylation were indicated by a triple asterisk (***) in the case where the percent phosphorylation of MCM2 was less than 20%, by a dual asterisk (**) in the case where the percent phosphorylation of MCM2 was not less than 20% and less than 50%, and by a single asterisk (*) in the case where the percent phosphorylation of MCM2 was not less than 50% and less than 70%.

[3] = human Cdc7/human ASK complex, FITC-labeled MCM2 peptide substrate, reaction 5 hours at room temperature, read-out: Test Example 1 Cdc7 IC50 value

human Cdc7/human ASK complex protein, sequence (O00311 whole entry): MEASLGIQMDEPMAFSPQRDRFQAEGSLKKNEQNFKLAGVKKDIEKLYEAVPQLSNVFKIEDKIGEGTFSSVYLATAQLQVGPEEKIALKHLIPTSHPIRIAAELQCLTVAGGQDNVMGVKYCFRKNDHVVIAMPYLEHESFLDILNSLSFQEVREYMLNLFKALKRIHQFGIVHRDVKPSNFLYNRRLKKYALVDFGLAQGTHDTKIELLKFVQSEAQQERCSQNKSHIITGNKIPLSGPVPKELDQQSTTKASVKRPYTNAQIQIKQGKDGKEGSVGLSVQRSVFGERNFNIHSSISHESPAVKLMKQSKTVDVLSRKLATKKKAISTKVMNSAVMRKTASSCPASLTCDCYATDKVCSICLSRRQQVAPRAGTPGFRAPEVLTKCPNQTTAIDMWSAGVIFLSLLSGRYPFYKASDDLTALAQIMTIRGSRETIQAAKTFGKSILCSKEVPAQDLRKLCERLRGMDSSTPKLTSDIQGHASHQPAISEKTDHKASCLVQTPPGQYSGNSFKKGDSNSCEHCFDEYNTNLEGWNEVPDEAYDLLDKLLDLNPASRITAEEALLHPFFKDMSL
human Cdc7/human ASK complex protein, sequence (Q9UBU7 whole entry partner): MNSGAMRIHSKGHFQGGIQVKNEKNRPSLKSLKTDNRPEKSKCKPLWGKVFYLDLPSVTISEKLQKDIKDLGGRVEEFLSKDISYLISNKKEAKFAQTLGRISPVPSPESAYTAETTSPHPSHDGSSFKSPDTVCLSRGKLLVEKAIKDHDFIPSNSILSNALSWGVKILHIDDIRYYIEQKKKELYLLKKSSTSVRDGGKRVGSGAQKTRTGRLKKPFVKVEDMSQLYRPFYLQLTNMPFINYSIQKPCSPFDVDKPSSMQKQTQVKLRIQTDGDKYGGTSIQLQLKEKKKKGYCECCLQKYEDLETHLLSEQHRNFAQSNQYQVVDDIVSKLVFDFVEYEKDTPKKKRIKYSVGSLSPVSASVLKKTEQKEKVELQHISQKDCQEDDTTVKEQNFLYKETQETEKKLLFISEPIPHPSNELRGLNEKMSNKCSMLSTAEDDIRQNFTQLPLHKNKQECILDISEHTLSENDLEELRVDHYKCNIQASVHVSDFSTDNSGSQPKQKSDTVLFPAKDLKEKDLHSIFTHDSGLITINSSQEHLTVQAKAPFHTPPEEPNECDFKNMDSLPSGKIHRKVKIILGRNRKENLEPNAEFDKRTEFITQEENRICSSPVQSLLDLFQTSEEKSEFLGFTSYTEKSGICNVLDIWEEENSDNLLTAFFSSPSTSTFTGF

IC50 [1, 3] | IC50 [1] | SMILES | inhibition at 0.1 µM [2]
4 nM | – | CCOC(=O)C1=C(Nc2ccc3cn[nH]c3c2)O/C(=C\c2c[nH]c3ncccc23)C1=O [Example 68, Ethyl 5-[(1H-pyrrolo[2,3-b]pyridin-3-yl)methylene]-2-[(6-indazolyl)amino]-4-oxo-4,5-dihydrofuran-3-carboxylate] | < 20%
3 nM | – | CCOC(=O)C1=C(NN2CCOCC2)O/C(=C\c2c[nH]c3ncccc23)C1=O [Example 142, Ethyl 5-[(1H-pyrrolo[2,3-b]pyridin-3-yl)methylene]-2-(morpholinoamino)-4-oxo-4,5-dihydrofuran-3-carboxylate] | 20 to 50%
2 nM | – | Cc1cc(F)ccc1NC1=CC(=O)/C(=C/c2c[nH]c3ncccc23)O1 [Example 233, 2-[(1H-Pyrrolo[2,3-b]pyridin-3-yl)methylene]-5-[(4-fluoro-2-methylphenyl)amino]furan-3(2H)-one] | 20 to 50%
9 nM | – | CCOC(=O)C1=C(Nc2ccc(CN(C)C)cc2C)O/C(=C\c2c[nH]c3ncccc23)C1=O [Example 129, Ethyl 5-[(1H-pyrrolo[2,3-b]pyridin-3-yl)methylene]-2-({4-[(dimethylamino)methyl]-2-methylphenyl}amino)-4-oxo-4,5-dihydrofuran-3-carboxylate] | < 20%
4 nM | – | CN(C)CCOC(=O)C1=C(Nc2ccc(F)cc2F)O/C(=C\c2c[nH]c3ncccc23)C1=O [Example 91, 2-(Dimethylamino)ethyl 5-[(1H-pyrrolo[2,3-b]pyridin-3-yl)methylene]-2-[(2,4-difluorophenyl)amino]-4-oxo-4,5-dihydrofuran-3-carboxylate] | < 20%
– | – | O=C(O)C1=C(Nc2ccccc2)O/C(=C\c2c[nH]c3ncccc23)C1=O [Example 22, 5-[(1H-Pyrrolo[2,3-b]pyridin-3-yl)methylene]-4-oxo-2-(phenylamino)-4,5-dihydrofuran-3-carboxylic acid] | 50 to 70%
– | – | CCOC(=O)C1=C(N2CCCCCC2)O/C(=C\c2c[nH]c3ncccc23)C1=O [Example 63] | < 20%
2 nM | – | CCOC(=O)C1=C(Nc2ccccc2Cl)O/C(=C\c2c[nH]c3ncccc23)C1=O [Example 15, Ethyl 5-[(1H-pyrrolo[2,3-b]pyridin-3-yl)methylene]-2-[(2-chlorophenyl)amino]-4-oxo-4,5-dihydrofuran-3-carboxylate] | 20 to 50%
3 nM | – | COCCOC(=O)C1=C(Nc2ccccc2Cl)O/C(=C\c2c[nH]c3ncccc23)C1=O [Example 173, 2-Methoxyethyl 5-[(1H-pyrrolo[2,3-b]pyridin-3-yl)methylene]-2-[(2-chlorophenyl)amino]-4-oxo-4,5-dihydrofuran-3-carboxylate] | < 20%
4 nM | – | CCOC(=O)C1=C(N2CCc3ccccc3C2)O/C(=C\c2c[nH]c3ncccc23)C1=O [Example 102, Ethyl 5-[(1H-pyrrolo[2,3-b]pyridin-3-yl)methylene]-2-(3,4-dihydroisoquinolin-2(1H)-yl)-4-oxo-4,5-dihydrofuran-3-carboxylate] | < 20%
11 nM | – | CCOC(=O)C1=C(N2CCC(C)CC2)O/C(=C\c2c[nH]c3ncccc23)C1=O [Example 78, Ethyl 5-[(1H-pyrrolo[2,3-b]pyridin-3-yl)methylene]-2-(4-methylpiperidino)-4-oxo-4,5-dihydrofuran-3-carboxylate] | < 20%
4 nM | – | O=C1C=C(NC2CCCCCC2)O/C1=C\c1c[nH]c2ncccc12 [Example 226, 2-[(1H-Pyrrolo[2,3-b]pyridin-3-yl)methylene]-5-(cycloheptylamino)furan-3(2H)-one] | < 20%
8 nM | – | CCOC(=O)C1=C(NN2CCN(CC(F)(F)F)CC2)O/C(=C\c2c[nH]c3ncccc23)C1=O [Example 246, Ethyl 5-[(1H-pyrrolo[2,3-b]pyridin-3-yl)methylene]-4-oxo-2-{[4-(2,2,2-trifluoroethyl)piperazinyl]amino}-4,5-dihydrofuran-3-carboxylate] | < 20%
– | 1 nM | Cc1ccsc1CNC1=CC(=O)/C(=C/c2c[nH]c3ncccc23)O1 [Example 242, 2-[(1H-Pyrrolo[2,3-b]pyridin-3-yl)methylene]-5-{[(3-methyl-2-thienyl)methyl]amino}furan-3(2H)-one] | < 20%
5 nM | – | CCOC(=O)C1=C(Nc2ccc(OCCO)cc2F)OC(=Cc2c[nH]c3ncccc23)C1=O [Example 81, Ethyl 5-[(1H-pyrrolo[2,3-b]pyridin-3-yl)methylene]-2-{[2-fluoro-4-(2-hydroxyethoxy)phenyl]amino}-4-oxo-4,5-dihydrofuran-3-carboxylate] | < 20%
3 nM | – | CCOC(=O)C1=C(Nc2ccc(NCCO)cc2C)O/C(=C\c2c[nH]c3ncccc23)C1=O [Example 126, Ethyl 5-[(1H-pyrrolo[2,3-b]pyridin-3-yl)methylene]-2-({4-[(2-hydroxyethyl)amino]-2-methylphenyl}amino)-4-oxo-4,5-dihydrofuran-3-carboxylate] | < 20%
4 nM | – | CCOC(=O)C1=C(N2CCc3ccc(OC)cc3C2)O/C(=C\c2c[nH]c3ncccc23)C1=O [Example 244, Ethyl 5-[(1H-pyrrolo[2,3-b]pyridin-3-yl)methylene]-2-(7-methoxy-3,4-dihydroisoquinolin-2(1H)-yl)-4-oxo-4,5-dihydrofuran-3-carboxylate] | < 20%
3 nM | – | Cc1cc(OCCO)ccc1NC1=C(C(=O)OC(C)C)C(=O)/C(=C/c2c[nH]c3ncccc23)O1 [Example 157, Isopropyl 5-[(1H-pyrrolo[2,3-b]pyridin-3-yl)methylene]-2-{[4-(2-hydroxyethoxy)-2-methylphenyl]amino}-4-oxo-4,5-dihydrofuran-3-carboxylate] | 20 to 50%
8 nM | – | CC(C)OC(=O)C1=C(NN2CCOCC2)O/C(=C\c2c[nH]c3ncccc23)C1=O [Example 245, Isopropyl 5-[(1H-pyrrolo[2,3-b]pyridin-3-yl)methylene]-2-(morpholinoamino)-4-oxo-4,5-dihydrofuran-3-carboxylate] | < 20%
